Where two headings read alike, the source gives them in different places.
What was measured:
Assay in all cases: cells
Parameters in all cases: species or system AML cell lines (8); Secondary HTS, 10-point dose-response in triplicate, Cell Titer Glo viability, four-parameter fit EC50
MV4-11 = settings: Homo sapiens, read-out: MV4-11
CMS = settings: read-out: CMS
MOLM-13 = settings: Homo sapiens, read-out: MOLM-13
ML-2 = settings: Homo sapiens, read-out: ML-2
U937 = settings: Homo sapiens, read-out: U937
CHRF288-11 = settings: read-out: CHRF288-11
CMK = settings: Homo sapiens, read-out: CMK
M07e = settings: M-07e, read-out: M07e

Row | Structure (SMILES) | EC50 (MV4-11; MV4-11, 72 h) [µM] | EC50 (CMS; 72 h) [µM] | EC50 (MOLM-13; MOLM-13, 72 h) [µM] | EC50 (ML-2; ML-2, 72 h) [µM] | EC50 (U937; U-937, 72 h) [µM] | EC50 (CHRF288-11; 72 h) [µM] | EC50 (CMK; CMK, 72 h) [µM] | EC50 (M07e; 72 h) [µM] | EC50 (MV4-11; 72 h cell viability) [µM] | EC50 (CMS; 72 h cell viability) [µM] | EC50 (MOLM-13; 72 h cell viability) [µM] | EC50 (ML-2; 72 h cell viability) [µM] | EC50 (U937; U-937, 72 h cell viability) [µM] | EC50 (CHRF288-11; 72 h cell viability) [µM] | EC50 (CMK; 72 h cell viability) [µM] | EC50 (M07e; 72 h cell viability) [µM]
1 | O=C(CCCCCCNC(=O)c1cnc(N(c2ccccc2)c2ccccc2)nc1)NO [SJ000833835, ROCILINOSTAT] | > 10 | > 10 | > 10 | > 10 | 10 | > 10 | 9.1 | 2.7 | – | – | – | – | – | – | – | –
2 | COc1ccc(Cn2ccc3ccc(C(=O)NO)cc32)cc1 [SJ000833836, PCI 34051] | > 10 | 6.8 | > 10 | > 10 | > 10 | > 10 | > 10 | > 10 | – | – | – | – | – | – | – | –
3 | O=C(NCC1(c2nc(-c3ccccc3)cs2)CCOCC1)c1cccc(-c2noc(C(F)(F)F)n2)c1 [SJ000833838, TMP269] | > 10 | > 10 | > 10 | > 10 | > 10 | > 10 | > 10 | 0.19 | – | – | – | – | – | – | – | –
4 | Cc1ccc(C(=O)c2cc(/C=C/C(=O)NO)n(C)c2)cc1 [SJ000833840, MC 1293] | > 10 | > 10 | > 10 | > 10 | > 10 | > 10 | 8.7 | 0.45 | – | – | – | – | – | – | – | –
5 | C[C@@H]1COCCN1c1cc(C2(S(C)(=O)=O)CC2)nc(-c2cccc3[nH]ccc23)n1 [SJ000833844, AZ-20] | > 10 | 0.6 | > 10 | 0.031 | 4.7 | 2.5 | > 10 | 0.2 | – | – | – | – | – | – | – | –
6 | CC(C)(C#N)c1ccc(N2C(=O)OCc3cnc4ccc(-c5cnc6ccccc6c5)cc4c32)cc1 [SJ000833848, ETP-46464] | > 10 | 5.2 | > 10 | 3.6 | > 10 | 8.3 | 0.73 | > 10 | – | – | – | – | – | – | – | –
7 | O=C(CCN1CCN(C(=O)OCc2cc(Cl)cc(Cl)c2)CC1)c1ccc2[nH]c(=O)oc2c1 [SJ000833851, PF-8380] | > 10 | > 10 | 0.0024 | > 10 | > 10 | > 10 | > 10 | > 10 | – | – | – | – | – | – | – | –
8 | Cc1noc(-c2ccc(-c3ccc(CC(=O)O)cc3)cc2)c1NC(=O)O[C@H](C)c1ccccc1 [SJ000833854, AM-095] | > 10 | > 10 | 0.0068 | > 10 | > 10 | > 10 | > 10 | > 10 | – | – | – | – | – | – | – | –
9 | Cc1noc(-c2ccc(-c3ccc(CC(=O)O)cc3)cc2)c1NC(=O)O[C@H](C)c1ccccc1Cl [SJ000833864, AM-966] | > 10 | > 10 | 0.018 | > 10 | > 10 | > 10 | > 10 | > 10 | – | – | – | – | – | – | – | –
10 | C=CC(=O)Nc1cccc(Nc2nc(Nc3ccc(OCCOC)cc3)ncc2F)c1 [SJ000833882, CC-292 (AVL-292)] | > 10 | > 10 | > 10 | > 10 | 4.8 | > 10 | 4 | 9.5 | – | – | – | – | – | – | – | –
11 | CN(c1ncccc1CNc1nc(Nc2ccc3c(c2)CC(=O)N3)ncc1C(F)(F)F)S(C)(=O)=O [SJ000833883, PF-00562271] | > 10 | > 10 | > 10 | 0.5 | 3.9 | > 10 | 2.6 | 6.2 | – | – | – | – | – | – | – | –
12 | N#Cc1ccc(COC[C@H]2O[C@@H](n3c(NCc4ccc(Cl)c(Cl)c4)nc4c(N)ncnc43)[C@H](O)[C@@H]2O)cc1 [SJ000833885, VER-155008] | > 10 | 5.9 | > 10 | > 10 | > 10 | > 10 | > 10 | > 10 | – | – | – | – | – | – | – | –
13 | N[C@@H]1CCCN(c2c(/C=C3\SC(=O)NC3=O)cccc2-c2ccccc2)C1 [SJ000833889, AZD1208] | > 10 | > 10 | > 10 | > 10 | > 10 | > 10 | > 10 | > 10 | – | – | – | – | – | – | – | –
14 | O=c1cc(N2CCOCC2)oc2c(-c3cccc4c3sc3ccccc34)cccc12 [SJ000834137, NU 7441] | > 10 | > 10 | > 10 | > 10 | > 10 | > 10 | > 10 | 0.3 | – | – | – | – | – | – | – | –
15 | O=C(Nc1ncc([N+](=O)[O-])s1)c1ccc([N+](=O)[O-])c(Cl)c1 [SJ000834139, SM-7368] | – | – | – | – | – | – | – | – | > 10 | > 10 | > 10 | > 10 | 6.8 | > 10 | > 10 | > 10
16 | CCOC(=O)C1=C(C)NC2=C(C(=O)CC(C)(C)C2)C1c1ccc(-c2ccccc2)cc1 (stereo not drawn) [SJ000834140, ITD-1] | > 10 | > 10 | > 10 | > 10 | > 10 | > 10 | > 10 | > 10 | – | – | – | – | – | – | – | –
17 | CCN1CCN(CC(=O)Nc2ccc(-c3cccc4c(=O)cc(N5CCOCC5)oc34)c3sc4ccccc4c23)CC1 [SJ000834141, KU-0060648] | > 10 | 2.8 | 0.47 | 0.43 | 3 | 0.78 | 0.27 | 4 | – | – | – | – | – | – | – | –
18 | Cc1ccc(NCCCc2ccccc2)c(N)c1 [SJ000834143, JSH-23] | > 10 | > 10 | > 10 | > 10 | > 10 | > 10 | 8.7 | > 10 | – | – | – | – | – | – | – | –
19 | O=C(Nc1cc(Cl)cc2c1[nH]c1cnccc12)c1cccnc1 [SJ000834145, PS-1145] | > 10 | > 10 | > 10 | > 10 | > 10 | > 10 | > 10 | > 10 | – | – | – | – | – | – | – | –
20 | c1ccc2c(-c3cnn4cc(-c5ccc(N6CCNCC6)cc5)cnc34)ccnc2c1 [SJ000834146, LDN-193189] | 0.19 | 0.53 | 0.19 | 0.18 | 0.19 | 0.36 | 1.1 | 0.62 | – | – | – | – | – | – | – | –
21 | CC(C)c1cccc(C(C)C)c1N1C(=O)c2ccc(O)cc2C1=O [SJ000834149, 5HPP-33] | > 10 | 8.4 | > 10 | 5.7 | 6.7 | > 10 | > 10 | > 10 | – | – | – | – | – | – | – | –
22 | c1ccc(-c2nn3c(c2-c2ccnc4cc(OCCN5CCOCC5)ccc24)CCC3)nc1 [SJ000834150, LY2109761] | > 10 | > 10 | > 10 | > 10 | > 10 | > 10 | > 10 | > 10 | – | – | – | – | – | – | – | –
23 | COc1ccc([C@@]23Oc4cc(OC)cc(OC)c4[C@]2(O)[C@H](O)[C@H](C(=O)N(C)C)[C@H]3c2ccccc2)cc1 [SJ000834151, ROCAGLAMIDE A] | > 10 | 0.017 | 0.018 | 0.044 | 0.053 | 0.014 | 0.021 | 0.031 | – | – | – | – | – | – | – | –
24 | CN1CCN(c2cc(C(=O)Nc3ccc4c(c3)-c3c(c(C(N)=O)nn3-c3ccc(F)cc3)CC4)c(Cl)cn2)CC1 [SJ000834153, PHA 408] | > 10 | > 10 | > 10 | > 10 | 9.2 | > 10 | > 10 | 5.2 | – | – | – | – | – | – | – | –
25 | Nc1nc(NC2CC2)cc(-c2cccc(Cl)c2Cl)n1 [SJ000834160, TH588] | > 10 | > 10 | > 10 | 10 | 3 | > 10 | 4.8 | > 10 | – | – | – | – | – | – | – | –
26 | O=c1cc(N2CCOCC2)oc2c1ccc1ccccc12 [SJ000834163, NU 7026] | > 10 | > 10 | > 10 | > 10 | > 10 | > 10 | > 10 | > 10 | – | – | – | – | – | – | – | –
27 | Cc1ccc(S(=O)(=O)/C=C/C#N)cc1 [SJ000834165, BAY 11-7082] | 1.8 | 3.6 | 1.3 | 0.68 | 0.5 | 1.8 | 4.5 | 3.3 | – | – | – | – | – | – | – | –
